{"source": "patent US7638496B2", "about": "(priority 2000, dated 2009)", "key": {"[1]": {"test_system": "PTV (Adames strain)", "test": "PTV infection in C57BL/6 mice in vivo", "details": "24 h post infection by PTV", "experimental": "For 24 h post infection by PTV in vivo the minimum effective s.c. dose of 32 mg/kg for ribavirin and for viramidine was 96 mg/kg given s.c. b.i.d for 5 days. For 24 h post infection by PTV in vivo the minimum effective p.o. dose of 20 mg/kg for ribavirin and for viramidine was 40 mg/kg given p.o. b.i.d for 5 days."}, "[2]": {"test_system": "IMP dehydrogenease", "details": "cited from earlier work"}}}
{"molecule": "NC(=O)c1ncn([C@@H]2O[C@H](CO)[C@@H](O)[C@H]2O)n1", "note": "[Ribavirin, 1-β-D-ribofuranosyl-1,2,4-triazole-3-carboxamide]", "values": [{"measurement": "minimum effective p.o. dose", "setting": "[1]; p.o. b.i.d for 5 days", "value": 20, "unit": "mg/kg"}, {"measurement": "minimum effective s.c. dose", "setting": "[1]; s.c. b.i.d for 5 days", "value": 32, "unit": "mg/kg"}, {"measurement": "IMP dehydrogenase inhibition", "setting": "[2]", "value": "inhibitor of IMP dehydrogenease"}]}
